SMILES strings stand for the structures. Like-named read-outs stand apart in the source and are kept apart here.

Data set [1] is described as follows: stability under the conditions of column chromatography. Format: physicochemical. The settings on record: both diastereomers and the diastereomer mixture.
For data set [2] the following is noted: various animal species and man; cited from earlier work.
For data set [3], the system named is enzymes endogenous to the body. Particulars: after absorption, by enzymes endogenous to the body; cited from earlier work.
A short description of data set [4]: recovery rate of the cephalosporin with free carboxyl group in the urine of dogs after oral administration of the diastereomeric prodrug ester (enteral absorption). Format: in vivo. The settings on record: for bioavailability: comparison between the diastereomers / with the diastereomer mixture of cefpodoxime proxetil.
For data set [5] the following is noted: diastereomers; T. Nishimura et al., The Journal of Antibiotics 40, 81-90 (1987); cited from earlier work.

In the case of `COCC1=C(C(=O)OC(C)OC(=O)OC(C)C)N2C(=O)[C@@H](NC(=O)/C(=N\OC)c3csc(N)n3)[C@H]2SC1` (mixture of isomers) [cefpodoxime proxetil, 1-(Isopropoxycarbonyloxy)ethyl (6R, 7R)-7-[2-(2-aminothiazol-4-yl)-2-(Z)-(methoxyimino)acetamido]-3-methoxymethyl-3-cephem-4-carboxylate (diastereomer mixture, Cefpodoxime Proxetil)], in data set [1], the stability result is reported as “unstable”. Moreover, the enteral absorption entry in data set [2] is given as “readily enterally absorbed”. In data set [3], the “cleavage to the antibiotically active cephalosporin having a free carboxyl group” value is “rapidly and completely cleaved”.

Consider `COCC1=C(C(=O)OC(C)OC(=O)OC(C)C)N2C(=O)[C@@H](NC(=O)/C(=N\OC)c3csc(N)n3)[C@H]2SC1` (single isomer, unassigned; diastereomer b) [Example 8], for which the enteral absorption result in data set [4] (as shown in Table 1) was “increased enteral absorption”. Besides, the values for the bioavailability entry in data set [4] (listed as the more absorbable diastereomer) and in data set [4] (listed as the more polar of the two diastereomers) were “higher bioavailability than the diastereomer mixture” and “higher bioavailability”, respectively.

Regarding `CC(OC(=O)OC1CCCCC1)OC(=O)C1=C(CSc2nnnn2CCN(C)C)CS[C@@H]2[C@H](NC(=O)Cc3csc(N)n3)C(=O)N12` (stereo partly shown) [cefotiam hexetil], in data set [5], the “effect of configuration in the 1-position on the level of enteral absorption” value is reported as “no effect on the level of enteral absorption”.

Source of the values: patent publication US5614623A, “Diastereomers of 1-(isopropoxycarbonyloxy)ethyl 3-cephem-4-carboxylate and processes for their preparation” (Hoechst Aktiengesellschaft, priority 1991, dated 1997).
